Key:
[1] = test system: chronic primary insomnia patients with sleep maintenance difficulties; test: Phase III study of doxepin, rebound insomnia by PSG during the 2-day discontinuation period; assay type: in vivo, human; settings: Doxepin HCl 6 mg group
Source text: The term “rebound insomnia” refers to the common occurrence that a person may have more trouble sleeping the first few nights after a sedative medicine is stopped than before starting the medicine. After more than a few days' use, discontinuing a hypnotic or sedative medication can make the original sleep problem worse and can cause an increase anxiety. Rebound insomnia may be measured as the mean change in mean wake time after sleep onset (WASO) from baseline to the first night of discontinuation.
Patients were discharged from the sleep center after all final study-related procedures had been completed on the Final Study Day (Day 38, Early Termination [ET]).
(§1) Safety: Safety was assessed based on AEs, clinical laboratory tests (hematology, serum chemistry, and urinalysis), vital signs, physical examinations, neurological assessments, 12-lead ECGs, and ratings of hangover/residual effects (digit-symbol substitution test (DSST), symbol copying test (SCT), and the visual analog scale (VAS) for sleepiness), assessment of rebound insomnia using PSG recordings during the discontinuation period, and withdrawal symptoms using the benzodiazepine withdrawal symptom questionnaire (BWSQ).

[2] = Phase III study of doxepin, safety assessments (body weight, residual effects, withdrawal symptoms, laboratory tests, ECG); assay type: in vivo, human
Method: Safety assessments including adverse events (AEs), vitals, and neurological assessments were performed throughout the study period. Other safety assessments, including clinical laboratory tests, electrocardiograms (ECGs), and physical examinations (PEs) were performed before and after the study treatment period. For early termination, all safety assessments, including AEs neurological assessments, clinical laboratory tests, ECGs, vitals, and PEs were performed.
as §1
Safety analyses included all randomized patients who received at least one dose of double-blind study medication. Treatment assignment for safety data was based on the treatment actually received.

[3] = test system: chronic primary insomnia patients with sleep maintenance difficulties; test: Phase III study of doxepin, 8-hour PSG efficacy variables (WASO, TST, SE, LPS); settings: for 8-hour WASO, Mean (SD) / LPS (latency to persistent sleep, PSG), Mean (SD) / SE - Hour 8 (PSG), Mean (SD) / TST (8-hour PSG), Mean (SD) / LPS (PSG), Mean (SD) / SE (8-hour PSG), Mean (SD): ITT
Source text: Patients with at least a 3-month history of primary insomnia, according to Diagnostic and Statistical Manual of Mental Disorders, Fourth Edition Text Revision (DSM-IV-TR)-defined primary insomnia were enrolled.
Patients were screened (Visit 1) to determine study eligibility and asked to discontinue any protocol-disallowed prescription or over-the-counter (OTC) medications used as sleep medication. At the beginning of the first week (polysomnography [PSG] Screening, Visit 2), eligible patients began two weeks of single-blind placebo dosing and had two consecutive nights of 8-hour PSG recording in the sleep center. Patients were required to meet the PSG screening criteria to remain eligible for the study. Patients were allowed to leave the sleep center during the day after the PSG Screening nights and continued to take single-blind placebo after PSG Screening (Visit 2) for five consecutive nights at home.
Patients were allowed to leave the sleep center during the day after the PSG nights and continued taking single-blind placebo for five consecutive nights at home.
After the PSG Screening and Baseline periods, patients began a 35-day double-blind treatment period during which they were given study drug supplies at each scheduled visit (Visits 4, 5, and 6). The scheduled study visits consisted of two consecutive nights of 8-hour PSG recording in the sleep center and next day assessments to assess sedative efficacy. Patients were asked to complete hangover/residual effects assessments, morning and evening questionnaires, and the Benzodiazepine Withdrawal Symptom Questionnaire (BWSQ) at each of these visits.
Primary Efficacy: The primary efficacy variable was wake after sleep onset (WASO) obtained on Night 1 as determined by PSG recordings using the ITT analysis set.
Additional PSG efficacy variables: Additional efficacy variables obtained on the first PSG assessment nights (Nights 1 and 29) included WASO (Night 29), wake time during sleep (WTDS), total sleep time (TST), sleep efficiency (SE), including whole night, third of the night, and by hour, and latency to persistent sleep (LPS), latency to Stage 2 sleep, number of awakenings after sleep onset (NAASO), total wake time (TWT), wake time after sleep (WTAS), and, sleep architecture including percentage and minutes of Stage 1, 2, and 3/4 non-rapid eye movement (NREM) sleep, percentage and minutes of rapid eye movement (REM) sleep, and latency to REM sleep.
Methods used to analyze other endpoints were the same as those used to analyze WASO. For LPS, latency to REM sleep, latency to Stage 2 sleep, and LSO, data were expected to be log-normally distributed and were analyzed using log-transformed values (base 10). The safety data were analyzed primarily using descriptive statistical methods.
All efficacy analyses were performed on the Intent-to-treat (ITT) analysis set. […] Data were analyzed as randomized and based on observed cases.

[4] = Night 36 and Night 37, N = 68 evaluable
[5] = Visit 7, Night 37 (discontinuation)
[6] = doxepin 3 mg, Night 1, p<0.0001 vs placebo
[7] = doxepin 3 mg, Night 15, p 0.1977 vs placebo
[8] = doxepin 3 mg, Night 29, p 0.0262 vs placebo
[9] = doxepin 6 mg, Night 1, p<0.0001 vs placebo
[10] = doxepin 6 mg, Night 15, p 0.0157 vs placebo
[11] = doxepin 6 mg, Night 29, p 0.0003 vs placebo

CN(C)CCC=C1c2ccccc2COc2ccccc21 [Doxepin, 11-(3-dimethylaminopropylidene)-6,11-dihydrodibenzo (b,e)oxepin]
Rebound insomnia frequency: patients with TST change from Baseline ≦−30 minutes at Visit 7, count (%) [1, 4]: 2 (3%)
Rebound insomnia frequency: patients with WASO change from Baseline ≧35 minutes at Visit 7, count (%) [1, 4]: 3 (4%)
WASO, Median ([1]; Visit 7, Night 36 (discontinuation)): 46.0 min
WASO, Mean (SD) ([1]; Visit 7, Night 36 (discontinuation, single-blind placebo after 35 nights of treatment)): 55.9 (40.26) minutes
WASO, Mean (SD) [1, 5]: 56.0 (42.68) minutes
WASO, Median [1, 5]: 49.0 min
WASO, Change from Baseline to Visit 7, Night 36, Median ([1]; discontinuation): -16.5 min
WASO, Change from Baseline to Visit 7, Night 37, Median ([1]; discontinuation): -20.0 min
WASO, Change from Baseline to Visit 7, Night 36, Mean (SD) ([1]; discontinuation, 95% CI (−34.99, −12.27)): −23.6 (46.93) minutes
WASO, Change from Baseline to Visit 7, Night 37, Mean (SD) ([1]; discontinuation, 95% CI (−36.26, −12.38)): −24.3 (47.41) minutes
Changes in other clinical laboratory tests, vital sign measurements, physical examinations, neurological assessments, or ECG parameters ([2]; 3 mg and 6 mg): no clinically relevant changes
Next day residual effects ([2]; 3 mg and 6 mg): no significant next day residual effects
Withdrawal effects ([2]; 3 mg and 6 mg, abrupt discontinuation): no withdrawal effects
Body Weight, Change from Screening, mean (±SD) ([2]; Doxepin HCl 3 mg): 0.3 (2.21) kg
Body Weight, Change from Screening, mean (±SD) ([2]; Doxepin HCl 6 mg): 0.0 (2.19) kg
Sedative tolerance (sleep maintenance variables across study visits, PSG) ([3]; 3 mg and 6 mg, 35-day double-blind treatment): no evidence of sedative tolerance
8-hour WASO, Mean (SD) ([3]; doxepin 3 mg group, Baseline (single-blind placebo)): 67.8 (33.56) minutes
LPS (latency to persistent sleep, PSG), Mean (SD) ([3]; doxepin 3 mg group, Baseline): 35.9 (29.84) minutes
SE - Hour 8 (PSG), Mean (SD) ([3]; doxepin 3 mg group, Baseline): 74.9 (22.87) %
TST (8-hour PSG), Mean (SD) ([3]; doxepin 3 mg group, Baseline): 380.3 (46.09) minutes
8-hour WASO, Mean (SD) ([3]; doxepin 3 mg, Night 1 (primary), p<0.0001 vs placebo): 41.4 (31.51) minutes
LPS (PSG), Mean (SD) ([3]; doxepin 3 mg, Night 1, p 0.0110 vs placebo): 26.7 (23.42) minutes
SE (8-hour PSG), Mean (SD) [3, 6]: 86.5 (8.68) %
SE - Hour 8 (PSG), Mean (SD) [3, 6]: 87.8 (14.28) %
TST (8-hour PSG), Mean (SD) [3, 6]: 415.3 (41.65) minutes
8-hour WASO, Mean (SD) ([3]; doxepin 3 mg, Night 15, p 0.0053 vs placebo): 44.8 (27.26) minutes
SE (8-hour PSG), Mean (SD) [3, 7]: 83.7 (10.12) %
TST (8-hour PSG), Mean (SD) [3, 7]: 401.7 (48.56) minutes
LPS (PSG), Mean (SD) ([3]; doxepin 3 mg, Night 15, p 0.3644 vs placebo): 38.2 (40.52) minutes
SE (8-hour PSG), Mean (SD) [3, 8]: 85.0 (10.92) %
TST (8-hour PSG), Mean (SD) [3, 8]: 408.1 (52.41) minutes
8-hour WASO, Mean (SD) ([3]; doxepin 3 mg, Night 29, p 0.0299 vs placebo): 47.3 (43.53) minutes
SE - Hour 8 (PSG), Mean (SD) ([3]; doxepin 3 mg, Night 29, p 0.0524 vs placebo): 81.9 (20.81) %
LPS (PSG), Mean (SD) ([3]; doxepin 3 mg, Night 29, p 0.9008 vs placebo): 28.0 (25.99) minutes
8-hour WASO, Mean (SD) ([3]; doxepin 6 mg group, Baseline (single-blind placebo)): 65.0 (33.23) minutes
LPS (latency to persistent sleep, PSG), Mean (SD) ([3]; doxepin 6 mg group, Baseline): 39.1 (34.10) minutes
SE - Hour 8 (PSG), Mean (SD) ([3]; doxepin 6 mg group, Baseline): 76.4 (21.26) %
TST (8-hour PSG), Mean (SD) ([3]; doxepin 6 mg group, Baseline): 380.3 (43.09) minutes
8-hour WASO, Mean (SD) ([3]; doxepin 6 mg, Night 1 (primary), p<0.0001 vs placebo): 36.3 (26.14) minutes
SE (8-hour PSG), Mean (SD) [3, 9]: 87.6 (7.72) %
SE - Hour 8 (PSG), Mean (SD) [3, 9]: 88.4 (14.25) %
TST (8-hour PSG), Mean (SD) [3, 9]: 420.5 (37.07) minutes
8-hour WASO, Mean (SD) ([3]; doxepin 6 mg, Night 15, p 0.0023 vs placebo): 41.9 (29.67) minutes
SE (8-hour PSG), Mean (SD) [3, 10]: 85.7 (10.70) %
TST (8-hour PSG), Mean (SD) [3, 10]: 411.3 (51.34) minutes
LPS (PSG), Mean (SD) ([3]; doxepin 6 mg, Night 15, p 0.8315 vs placebo): 31.8 (36.57) minutes
SE (8-hour PSG), Mean (SD) [3, 11]: 87.3 (9.37) %
TST (8-hour PSG), Mean (SD) [3, 11]: 419.1 (44.98) minutes
8-hour WASO, Mean (SD) ([3]; doxepin 6 mg, Night 29, p 0.0012 vs placebo): 41.2 (37.91) minutes
SE - Hour 8 (PSG), Mean (SD) ([3]; doxepin 6 mg, Night 29, p 0.0034 vs placebo): 85.8 (19.66) %
LPS (PSG), Mean (SD) ([3]; doxepin 6 mg, Night 29, p 0.9989 vs placebo): 24.7 (21.48) minutes

Source: US20130150434A1 (SOMAXON PHARMACEUTICALS, INC., priority 2006, published 2013)
